Measurements as given in PubChem BioAssay (NCI).
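96-well plates; 48 h exposure; 5 concentrations. Endpoints by linear interpolation between flanking doses. Not reached: highest tested concentration assigned. At the TGI there is no net growth.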

Assays:
Assay in all cases: growth of human tumour cells (NCI), 48 h
786-0 renal = tested on: 786-0 renal
HL-60(TB) leukemia = tested on: HL-60(TB) leukemia
SNB-75 CNS = tested on: SNB-75 CNS
K-562 leukemia = tested on: K-562 leukemia
T-47D breast = tested on: T-47D breast
HOP-62 NSCLC = tested on: HOP-62 NSCLC
SK-MEL-5 melanoma = tested on: SK-MEL-5 melanoma
HOP-92 NSCLC = tested on: HOP-92 NSCLC
SK-MEL-2 melanoma = tested on: SK-MEL-2 melanoma
MALME-3M melanoma = tested on: MALME-3M melanoma
KM12 colon = tested on: KM12 colon
SN12C renal = tested on: SN12C renal
EKVX NSCLC = tested on: EKVX NSCLC
HCT-116 colon = tested on: HCT-116 colon
RPMI-8226 leukemia = tested on: RPMI-8226 leukemia
HS 578T breast = tested on: HS 578T breast
OVCAR-8 ovarian = tested on: OVCAR-8 ovarian
MOLT-4 leukemia = tested on: MOLT-4 leukemia
TK-10 renal = tested on: TK-10 renal
OVCAR-4 ovarian = tested on: OVCAR-4 ovarian
SF-539 CNS = tested on: SF-539 CNS
SW-620 colon = tested on: SW-620 colon
NCI-H522 lung = tested on: NCI-H522 lung
OVCAR-3 ovarian = tested on: OVCAR-3 ovarian
RXF 393 renal = tested on: RXF 393 renal
MDA-MB-435 = tested on: MDA-MB-435
SF-295 CNS = tested on: SF-295 CNS
U251 CNS = tested on: U251 CNS
HCT-15 colon = tested on: HCT-15 colon
M14 melanoma = tested on: M14 melanoma
CCRF-CEM leukemia = tested on: CCRF-CEM leukemia
BT-549 breast = tested on: BT-549 breast
PC-3 prostate = tested on: PC-3 prostate
CAKI-1 renal = tested on: CAKI-1 renal
SK-MEL-28 melanoma = tested on: SK-MEL-28 melanoma
A549 NSCLC = tested on: A549 NSCLC
SK-OV-3 ovarian = tested on: SK-OV-3 ovarian
IGROV1 ovarian = tested on: IGROV1 ovarian
UO-31 renal = tested on: UO-31 renal
MCF7 breast = tested on: MCF7 breast
NCI/ADR-RES ovarian = tested on: NCI/ADR-RES ovarian
LOX IMVI melanoma = tested on: LOX IMVI melanoma
MDA-MB-231 breast = tested on: MDA-MB-231 breast
NCI-H460 lung = tested on: NCI-H460 lung
ACHN renal = tested on: ACHN renal
DU-145 prostate = tested on: DU-145 prostate
NCI-H23 lung = tested on: NCI-H23 lung
HCC-2998 colon = tested on: HCC-2998 colon
UACC-62 melanoma = tested on: UACC-62 melanoma
A498 renal = tested on: A498 renal
SF-268 CNS = tested on: SF-268 CNS
SR leukemia = tested on: SR leukemia
SNB-19 CNS = tested on: SNB-19 CNS
MDA-N = tested on: MDA-N
UACC-257 melanoma = tested on: UACC-257 melanoma
OVCAR-5 ovarian = tested on: OVCAR-5 ovarian
HT29 colon = tested on: HT29 colon
COLO 205 colon = tested on: COLO 205 colon
NCI-H226 lung = tested on: NCI-H226 lung

## CCCCCOc1ccc(Nc2c(O)c3c(c(O)c2Cl)C(=O)C=CC3=O)cc1
786-0 renal
  TGI: > 10 µM
HL-60(TB) leukemia
  TGI: 3.79 µM
SNB-75 CNS
  TGI: > 10 µM
K-562 leukemia
  TGI: > 9.65 µM
T-47D breast
  TGI: > 9.64 µM
HOP-62 NSCLC
  TGI: > 10 µM
SK-MEL-5 melanoma
  TGI: > 10 µM
HOP-92 NSCLC
  TGI: > 9.51 µM
SK-MEL-2 melanoma
  TGI: > 10 µM
MALME-3M melanoma
  TGI: > 6.38 µM
KM12 colon
  TGI: > 10 µM
SN12C renal
  TGI: > 10 µM
EKVX NSCLC
  TGI: > 10 µM
HCT-116 colon
  TGI: > 10 µM
RPMI-8226 leukemia
  TGI: 7.76 µM
HS 578T breast
  TGI: 7.39 µM
OVCAR-8 ovarian
  TGI: > 5.87 µM
MOLT-4 leukemia
  TGI: > 10 µM
TK-10 renal
  TGI: > 10 µM
OVCAR-4 ovarian
  TGI: 9.97 µM
SF-539 CNS
  TGI: > 10 µM
SW-620 colon
  TGI: > 10 µM
NCI-H522 lung
  TGI: 5.39 µM
OVCAR-3 ovarian
  TGI: > 6.54 µM
RXF 393 renal
  TGI: > 10 µM
MDA-MB-435
  TGI: 5.53 µM
SF-295 CNS
  TGI: > 10 µM
U251 CNS
  TGI: > 10 µM
HCT-15 colon
  TGI: 3.93 µM
M14 melanoma
  TGI: > 10 µM
CCRF-CEM leukemia
  TGI: > 10 µM
BT-549 breast
  TGI: > 6.94 µM
PC-3 prostate
  TGI: > 10 µM
CAKI-1 renal
  TGI: > 10 µM
SK-MEL-28 melanoma
  TGI: 8.66 µM
A549 NSCLC
  TGI: > 10 µM
SK-OV-3 ovarian
  TGI: > 10 µM
IGROV1 ovarian
  TGI: > 10 µM
UO-31 renal
  TGI: > 9.67 µM
MCF7 breast
  TGI: > 10 µM
NCI/ADR-RES ovarian
  TGI: > 10 µM
LOX IMVI melanoma
  TGI: 3.72 µM
MDA-MB-231 breast
  TGI: > 8.25 µM
NCI-H460 lung
  TGI: > 10 µM
ACHN renal
  TGI: > 10 µM
DU-145 prostate
  TGI: > 10 µM
NCI-H23 lung
  TGI: > 6.51 µM
HCC-2998 colon
  TGI: > 7.84 µM
UACC-62 melanoma
  TGI: > 10 µM
A498 renal
  TGI: > 10 µM
SF-268 CNS
  TGI: > 10 µM
SR leukemia
  TGI: 6.99 µM
SNB-19 CNS
  TGI: > 10 µM
MDA-N
  TGI: > 9.3 µM
UACC-257 melanoma
  TGI: > 10 µM
OVCAR-5 ovarian
  TGI: > 10 µM
HT29 colon
  TGI: > 10 µM
COLO 205 colon
  TGI: > 8.02 µM
NCI-H226 lung
  TGI: > 10 µM

## CCOC(=O)Oc1ccc(C(CNC(C)C)OC(=O)OCC)cc1OC(=O)OCC (stereo not drawn)
786-0 renal
  TGI: > 100 µM
HL-60(TB) leukemia
  TGI: 98.5 µM
SNB-75 CNS
  TGI: > 100 µM
K-562 leukemia
  TGI: > 100 µM
T-47D breast
  TGI: > 100 µM
HOP-62 NSCLC
  TGI: > 100 µM
SK-MEL-5 melanoma
  TGI: > 100 µM
HOP-92 NSCLC
  TGI: > 100 µM
SK-MEL-2 melanoma
  TGI: > 100 µM
MALME-3M melanoma
  TGI: > 100 µM
KM12 colon
  TGI: > 100 µM
SN12C renal
  TGI: > 100 µM
EKVX NSCLC
  TGI: > 100 µM
HCT-116 colon
  TGI: > 100 µM
RPMI-8226 leukemia
  TGI: > 100 µM
HS 578T breast
  TGI: > 100 µM
OVCAR-8 ovarian
  TGI: > 100 µM
MOLT-4 leukemia
  TGI: > 100 µM
TK-10 renal
  TGI: > 100 µM
OVCAR-4 ovarian
  TGI: > 100 µM
SF-539 CNS
  TGI: > 100 µM
SW-620 colon
  TGI: > 100 µM
NCI-H522 lung
  TGI: > 100 µM
OVCAR-3 ovarian
  TGI: > 100 µM
RXF 393 renal
  TGI: > 100 µM
MDA-MB-435
  TGI: > 100 µM
SF-295 CNS
  TGI: > 100 µM
U251 CNS
  TGI: > 100 µM
HCT-15 colon
  TGI: > 100 µM
M14 melanoma
  TGI: > 100 µM
CCRF-CEM leukemia
  TGI: > 100 µM
BT-549 breast
  TGI: > 100 µM
PC-3 prostate
  TGI: > 100 µM
CAKI-1 renal
  TGI: > 100 µM
SK-MEL-28 melanoma
  TGI: > 100 µM
A549 NSCLC
  TGI: > 100 µM
SK-OV-3 ovarian
  TGI: > 100 µM
IGROV1 ovarian
  TGI: > 100 µM
UO-31 renal
  TGI: > 100 µM
MCF7 breast
  TGI: > 100 µM
NCI/ADR-RES ovarian
  TGI: > 100 µM
LOX IMVI melanoma
  TGI: > 100 µM
MDA-MB-231 breast
  TGI: > 100 µM
NCI-H460 lung
  TGI: > 100 µM
ACHN renal
  TGI: > 100 µM
DU-145 prostate
  TGI: > 100 µM
NCI-H23 lung
  TGI: > 100 µM
HCC-2998 colon
  TGI: > 100 µM
UACC-62 melanoma
  TGI: > 100 µM
A498 renal
  TGI: > 100 µM
SF-268 CNS
  TGI: > 100 µM
SR leukemia
  TGI: > 100 µM
SNB-19 CNS
  TGI: > 100 µM
MDA-N
  TGI: > 100 µM
UACC-257 melanoma
  TGI: > 100 µM
OVCAR-5 ovarian
  TGI: > 100 µM
HT29 colon
  TGI: > 100 µM
COLO 205 colon
  TGI: > 100 µM
NCI-H226 lung
  TGI: > 100 µM
